Laboratory results: patent US20200361871A1 (Enterprise Therapeutics Ltd., priority 2018, published 2020)
pEC50: −log10 of the molar value.

Biological target: human TMEM16A (TMEM16Aabc variant) (Homo sapiens, UniProt Q5XXA6, DEL476-501, form not given)
Test: Automated whole-cell patch clamp (Qpatch) TMEM16A potentiator assay in FRT cells stably expressing human TMEM16A
Type: cell-based
Conditions: for % Potentiation @ 3.33 μM Avg: 3.33 μM solution of test compound, percentage increase of baseline TMEM16A current; for pEC50: calculated EC50, Qpatch TMEM16A current at +70 mV
Outline: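 FRT cells stably expressing human TMEM16Aabc were recorded by automated whole-cell patch clamp, with intracellular Ca2+ buffered for ~EC20 activation, holding −70 mV and step to +70 mV at 0.05 Hz. Compound was applied cumulatively, 5 min per concentration. Peak current increase as % of baseline was fitted to give EC50 and maximum efficacy.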

human TMEM16A (TMEM16Aabc variant), sequence (Q5XXA6 with tags, fused parts or gaps DEL476-501): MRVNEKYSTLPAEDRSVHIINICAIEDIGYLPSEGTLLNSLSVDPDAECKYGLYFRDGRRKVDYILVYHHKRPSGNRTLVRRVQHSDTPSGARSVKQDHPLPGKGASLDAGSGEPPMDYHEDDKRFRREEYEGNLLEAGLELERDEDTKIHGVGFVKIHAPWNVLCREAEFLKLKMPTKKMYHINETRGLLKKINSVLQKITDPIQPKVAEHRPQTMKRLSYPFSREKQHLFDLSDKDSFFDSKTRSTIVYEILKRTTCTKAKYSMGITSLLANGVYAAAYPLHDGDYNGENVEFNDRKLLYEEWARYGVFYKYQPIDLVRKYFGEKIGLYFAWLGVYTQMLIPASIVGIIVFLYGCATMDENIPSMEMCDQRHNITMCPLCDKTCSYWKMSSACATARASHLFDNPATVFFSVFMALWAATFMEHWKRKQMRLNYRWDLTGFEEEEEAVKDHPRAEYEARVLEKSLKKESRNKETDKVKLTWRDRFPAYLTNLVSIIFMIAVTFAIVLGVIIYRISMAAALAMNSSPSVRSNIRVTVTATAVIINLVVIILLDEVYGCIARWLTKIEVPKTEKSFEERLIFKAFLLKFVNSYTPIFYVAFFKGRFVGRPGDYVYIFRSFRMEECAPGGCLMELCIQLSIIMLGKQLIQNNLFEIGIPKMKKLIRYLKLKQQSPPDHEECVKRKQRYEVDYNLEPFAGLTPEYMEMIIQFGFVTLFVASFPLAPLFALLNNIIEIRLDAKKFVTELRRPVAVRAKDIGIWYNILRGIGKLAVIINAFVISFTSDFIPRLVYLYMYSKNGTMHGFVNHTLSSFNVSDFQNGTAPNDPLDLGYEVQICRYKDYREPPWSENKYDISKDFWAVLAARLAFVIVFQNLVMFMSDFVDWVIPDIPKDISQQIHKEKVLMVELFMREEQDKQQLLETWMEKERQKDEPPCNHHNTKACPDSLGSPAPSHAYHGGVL

Compound	% Potentiation @ 3.33 μM Avg [%]	pEC50
CC(C)(C)NC(=O)c1cc(NC(=O)C2CCCc3ccccc32)ccn1 (centres unmarked) [Example 5.27, N-tert-Butyl-4-(tetralin-1-carbonylamino) pyridine-2-carboxamide]	84	–
CC(C)(C)NC(=O)c1cc(NC(=O)Cc2ccc3c(c2)OCCO3)ccn1 [Compound 5.32]	285	–
O=C(Cc1ccccc1F)Nc1ccnc(C(=O)NC23CCC(F)(C2)C3)c1 [Example 60, N-(4-Fluoro-1-bicyclo[2.1.1]hexanyl)-4-[[2-(2-fluorophenyl)acetyl]amino]pyridine-2-carboxamide]	126	6.46
O=C(Cc1cc(Cl)ccc1O)Nc1ccnc(C(=O)NCCCc2ccccc2)c1 [Example 35.10, 4-[[2-(5-Chloro-2-hydroxy-phenyl)acetyl]amino]-N-(3-phenylpropyl)pyridine-2-carboxamide]	223	6.55
COc1ccccc1CNC(=O)Nc1ccnc(C(=O)NC(C)(C)C)c1 [Example 65.1, N-tert-Butyl-4-[(2-methoxyphenyl)methylcarbamoylamino]pyridine-2-carboxamide]	75	6.33
CC(C)(C)NC(=O)c1cc(NC(=O)Cc2ccccc2C2CC2)ccn1 [Example 58, N-tert-Butyl-4-[[2-(2-cyclopropylphenyl)acetyl]amino]pyridine-2-carboxamide]	217	–
C#CC(C)(C)NC(=O)c1cc(NC(=O)Cc2c[nH]nc2C(F)(F)F)ccn1 [Example 5.36, N-(1,1-Dimethylprop-2-ynyl)-4-[[2-[3-(trifluoromethyl)-1H-pyrazol-4-yl]acetyl]amino] pyridine-2-carboxamide]	44	7.22
CC(C)(C#N)NC(=O)c1cc(NC(=O)CC2CC3CCC2C3)ccn1 (centres unmarked) [Example 83.6, 4-(2-{Bicyclo[2.2.1]heptan-2-yl}acetamido)-N-(1-cyano-1-methylethyl)pyridine-2-carboxamide]	248	–
CC1(CC(=O)Nc2ccnc(C(=O)NC(C)(C)C#N)c2)CCCCC1 [Example 83.7, N-(1-Cyano-1-methyl-ethyl)-4-[[2-(1-methylcyclohexyl)acetyl]amino]pyridine-2-carboxamide]	147	–
CC(C)(C)NC(=O)c1cc(NC(=O)NCC2CCCCC2)ccn1 [Example 64.1, N-tert-Butyl-4-(cyclohexylmethylcarbamoylamino)pyridine-2-carboxamide]	78	–
CC(C)(C)NC(=O)c1cccc(NC(=O)Cc2n[nH]c3ccccc23)c1 [Example 4.1, N-tert-Butyl-3-[[2-(1H-indazol-3-yl)acetyl]amino]benzamide]	79	5.66
COc1ccc(C(=O)NC(C)(C)C)cc1NC(=O)Cc1cc(Cl)ccc1O [Example 16, N-tert-Butyl-3-[[2-(5-chloro-2-hydroxy-phenyl)acetyl]amino]-4-methoxy-benzamide]	63	–
Nc1cccc(CNC(=O)c2cc(NC(=O)Cc3cc(Cl)ccc3O)ccn2)n1 [Example 32, N-[(6-Amino-2-pyridyl)methyl]-4-[[2-(5-chloro-2-hydroxy-phenyl)acetyl]amino]pyridine-2-carboxamide]	171	–
CC(C)C(C)(C)NC(=O)c1cc(NC(=O)Cc2cc(Cl)ccc2O)ccn1 [Example 7.6, 4-[[2-(5-Chloro-2-hydroxy-phenyl)acetyl]amino]-N-(1,1,2-trimethylpropyl)pyridine-2-carboxamide]	285	7.00
CC1(NC(=O)c2cc(NC(=O)Cc3cc(Cl)c(F)cc3O)ccn2)CCC1 [Example 76, 4-[[2-(5-Chloro-4-fluoro-2-hydroxy-phenyl)acetyl]amino]-N-(1-methylcyclobutyl)pyridine-2-carboxamide]	366	6.66
CC(C)(C)NC(=O)c1cc(NC(=O)Cc2cc(O)cc(Cl)c2)ccn1 [Example 3.17b, N-tert-Butyl-4-[[2-(3-chloro-5-hydroxy-phenyl)acetyl]amino]pyridine-2-carboxamide]	227	6.92
CC1(NC(=O)c2cc(NC(=O)Cc3cc(Cl)ccc3O)ccn2)CCOCC1 [Example 7.9, 4-[[2-(5-Chloro-2-hydroxy-phenyl)acetyl]amino]-N-(4-methyltetrahydropyran-4-yl)pyridine-2-carboxamide]	288	6.64
CC(C)(C)NC(=O)c1cccc(NC(=O)Cc2cc(Br)ccc2O)c1 [Example 2.10, 3-[[2-(5-Bromo-2-hydroxy-phenyl)acetyl]amino]-N-tert-butyl-benzamide]	133	6.34

Compound	% Potentiation @ 3.33 μM Avg [%]	pEC50
O=C(Cc1cc(Cl)ccc1O)Nc1ccnc(C(=O)NC2(CCO)CCOCC2)c1 [Example 42, 4-[[2-(5-Chloro-2-hydroxy-phenyl)acetyl]amino]-N-[4-(2-hydroxyethyl)tetrahydropyran-4-yl]pyridine-2-carboxamide]	143	6.12
CC(C)(C)NC(=O)c1cc(NC(=O)[C@@H]2CCc3ccccc32)ccn1 (single isomer, unassigned) [Example 21a, N-tert-Butyl-4-[[(1R)-indane-1-carbonyl]amino]pyridine-2-carboxamide or N-tert-Butyl-4-[[(1S)-indane-1-carbonyl]amino]pyridine-2-carboxamide]	99	5.80
CC(C)(C)NC(=O)c1cc(NC(=O)C2COc3ccccc32)ccn1 (centres unmarked) [Example 5.25, N-tert-Butyl-4-(2,3-dihydrobenzofuran-3-carbonylamino)pyridine-2-carboxamide]	67	–
Cn1c(=O)c(C(=O)Nc2ccnc(C(=O)NC(C)(C)C#N)c2)cc2ccccc21 [Example 83.32, N-[2-[(1-Cyano-1-methyl-ethyl)carbamoyl]-4-pyridyl]-1-methyl-2-oxo-quinoline-3-carboxamide]	-16	–
CC(C)(C)c1ccc(CC(=O)Nc2ccnc(C(=O)NC3(C#N)CCOCC3)c2)cc1O [Example 93.3, 4-[[2-(4-tert-Butyl-3-hydroxy-phenyl)acetyl]amino]-N-(4-cyanotetrahydropyran-4-yl)pyridine-2-carboxamide]	130	7.22
CC(C)(C)NC(=O)c1cc(NC(=O)Cc2ccccc2C#N)ccn1 [Example 23.14, N-tert-Butyl-4-[[2-(2-cyanophenyl)acetyl]amino]pyridine-2-carboxamide]	33	–
CC(C)(C#N)NC(=O)c1cc(NC(=O)c2ccc3c(c2)OCC(=O)N3)ccn1 [Example 83.17, N-[2-[(1-Cyano-1-methyl-ethyl)carbamoyl]-4-pyridyl]-3-oxo-4H-1,4-benzoxazine-7-carboxamide]	8	–
COc1cc(CCC(=O)Nc2ccnc(C(=O)NC(C)(C)C#N)c2)ccn1 [Example 83.13, N-(1-Cyano-1-methyl-ethyl)-4-[3-(2-methoxy-4-pyridyl)propanoylamino]pyridine-2-carboxamide]	-1	–
CC(C)(C)NC(=O)c1cc(NC(=O)Cc2cc(Cl)ccc2O)c(F)cn1 [Example 28, N-tert-butyl-4-[[2-(5-chloro-2-hydroxy-phenyl)acetyl]amino]-5-fluoro-pyridine-2-carboxamide]	318	6.40
CC(C)(C)NC(=O)c1cccc(NC(=O)Cc2cccc(O)c2O)c1 [Example 2.16, N-tert-Butyl-3-[[2-(2,3-dihydroxyphenyl)acetyl]amino]benzamide]	60	5.37
CC(C)(C)C(C)(C)NC(=O)c1cccc(NC(=O)Cc2cc(Cl)ccc2O)c1 [Example 7, 3-[[2-(5-Chloro-2-hydroxy-phenyl)acetyl]amino]-N-(1,1,2,2-tetramethylpropyl) benzamide]	153	6.19
CC(C)(C)NC(=O)c1cc(NC(=O)Cc2cccnc2Cl)ccn1 [Example 5.16, N-tert-Butyl-4-[[2-(2-chloro-3-pyridyl)acetyl]amino]pyridine-2-carboxamide]	110	–
CC(C)(C)C1CCC(NC(=O)c2cc(NC(=O)Cc3cc(Cl)ccc3O)ccn2)CC1 (centres unmarked) [Example 39, N-(4-tert-Butylcyclohexyl)-4-[[2-(5-chloro-2-hydroxy-phenyl)acetyl]amino]pyridine-2-carboxamide]	262	7.22
O=C(Cc1cc(Cl)ccc1O)Nc1ccnc(C(=O)NC2CCNCC2(F)F)c1 (centres unmarked) [Example 32.8, 4-[[2-(5-Chloro-2-hydroxy-phenyl)acetyl]amino]-N-(3,3-difluoro-4-piperidyl)pyridine-2-carboxamide]	79	–
CC(C)(C)NC(=O)c1cc(NC(=O)Cc2cccc(O)c2Cl)ccn1 [Example 3.15b, N-tert-Butyl-4-[[2-(2-chloro-3-hydroxy-phenyl)acetyl]amino]pyridine-2-carboxamide]	127	–
CC(C)(C)NC(=O)c1cc(NC(=O)Cc2ccccc2O)ccn1 [Example 1, N-tert-Butyl-4-[[2-(2-hydroxyphenyl)acetyl]amino]pyridine-2-carboxamide]	203	6.68
CCC(C)(C)NC(=O)c1cc(NC(=O)Cc2ccc(F)cc2O)ccn1 [Example 3.1a, N-(1,1-Dimethylpropyl)-4-[[2-(4-fluoro-2-hydroxy-phenyl)acetyl]amino]pyridine-2-carboxamide]	128	6.74
O=C(Cc1cc(F)ccc1O)Nc1ccnc(C(=O)NC23CCC(F)(C2)C3)c1 [Example 81.4, N-(4-Fluoro-1-bicyclo[2.1.1]hexanyl)-4-[[2-(5-fluoro-2-hydroxy-phenyl)acetyl]amino] pyridine-2-carboxamide]	122	7.40
